Reference: patent US20240158446A1, “CYCLIC COMPOUND HAVING SELECTIVE INHIBITORY ACTION ON KRAS OVER HRAS AND NRAS” (CHUGAI SEIYAKU KABUSHIKI KAISHA, priority 2021, published 2024)
*1 amine or outer side, *2 acyl side, *3 side chain or, on linkers, in order; H or OH if unused. Where a SMILES comes first, the peptide text is derived from it. Bridges are numbered along the chain shown (N, C = ends). [ ]: non-standard residue; d: D form. The star is where a group is joined. hPhe(3-Cl-4-CF3) = N[C@@H](CCc1ccc(C(F)(F)F)c(Cl)c1)C(=O)O; NPrPhe(4-CF3) = CCCN[C@@H](Cc1ccc(C(F)(F)F)cc1)C(=O)O; NEtAsp = CCN([C@@H](CC(=O)[*:3])C(=O)[*:2])[*:1]; NMeGly(cPent) = CN[C@H](C(=O)O)C1CCCC1; Ac4c(3,3-Me2) = CC1(C)CC(N)(C(=O)O)C1; NMeNva(3-Et) = CCC(CC)[C@H](NC)C(=O)O; NEtLeu = CCN[C@@H](CC(C)C)C(=O)O; NMeD = CN[C@@H](CC(=O)O)C(=O)O; NMeL = CN[C@@H](CC(C)C)C(=O)O; NMeNva = CCC[C@H](NC)C(=O)O; Morpholide = C1CN(*)CCO1; NMeA = CN[C@@H](C)C(=O)O; Ac5c = NC1(C(=O)O)CCCC1; Aze = O=C(O)[C@@H]1CCN1; Ac4c = NC1(C(=O)O)CCC1; NEtG = CCNCC(=O)O; Sar = CNCC(=O)O; Propyl = CCC*

What was measured:
[1] = target: GDP-bound KRAS wild-type protein (Homo sapiens, UniProt P01116); test: Binding to KRAS by surface plasmon resonance (SPR), Single Cycle Kinetics; conditions: SPR, Single Cycle Kinetics, GDP-bound KRAS wild-type protein; read-out: KRAS KD
Sequence of GDP-bound KRAS wild-type protein (P01116 whole entry): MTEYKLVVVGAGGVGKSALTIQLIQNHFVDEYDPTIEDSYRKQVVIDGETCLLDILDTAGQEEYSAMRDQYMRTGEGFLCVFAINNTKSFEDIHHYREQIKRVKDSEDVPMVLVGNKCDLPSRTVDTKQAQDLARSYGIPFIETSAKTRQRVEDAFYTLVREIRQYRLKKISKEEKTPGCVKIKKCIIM

[2] = target: GDP-bound NRAS wild-type protein (Homo sapiens, UniProt P01111); test: Binding to NRAS by surface plasmon resonance (SPR), Single Cycle Kinetics; conditions: ratio of KD for GDP-bound NRAS wild-type protein to KD for KRAS, SPR
Sequence of GDP-bound NRAS wild-type protein (P01111 whole entry): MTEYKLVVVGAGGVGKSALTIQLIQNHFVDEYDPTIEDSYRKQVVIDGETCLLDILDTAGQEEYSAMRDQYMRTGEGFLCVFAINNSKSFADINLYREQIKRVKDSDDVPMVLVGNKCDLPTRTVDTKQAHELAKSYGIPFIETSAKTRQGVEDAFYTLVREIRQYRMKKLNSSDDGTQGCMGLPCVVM

[3] = target: GDP-bound HRAS wild-type protein (Homo sapiens, UniProt P01112); test: Binding to HRAS by surface plasmon resonance (SPR), Single Cycle Kinetics; conditions: ratio of KD for GDP-bound HRAS wild-type protein to KD for KRAS, SPR
Sequence of GDP-bound HRAS wild-type protein (P01112 whole entry): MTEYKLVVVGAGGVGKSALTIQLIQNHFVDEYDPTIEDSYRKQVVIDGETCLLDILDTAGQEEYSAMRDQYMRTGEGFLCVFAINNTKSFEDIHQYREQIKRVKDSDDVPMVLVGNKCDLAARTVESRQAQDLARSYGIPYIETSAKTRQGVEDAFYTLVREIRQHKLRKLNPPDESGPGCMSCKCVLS

[4] = system: human lung cancer strain NCI-H441; test: cells; conditions: NCI-H441, 96 h, read-out: NCI-H441 IC50 (nM), NCI-H441 cell proliferation, 4 days, CellTiter-Glo;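 further: cell proliferation inhibition after four days measured by CellTiter-Glo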

| Structure (SMILES) | Kd [1] | IC50 [4] | NRAS/KRAS (KD ratio) [2] | HRAS/KRAS (KD ratio) [3] |
| --- | --- | --- | --- | --- |
| CCCN1C(=O)[C@@H]2CCN2C(=O)[C@H](C)N(C)C(=O)[C@H]([C@@H](C)CC)NC(=O)[C@H](CC(C)C)N(C)C(=O)C[C@@H](C(=O)N(C)C)N(CC)C(=O)[C@H](C2CCCC2)N(C)C(=O)C2(CCC2)NC(=O)[C@@H]2CCCN2C(=O)[C@H](CCc2ccc(C(F)(F)F)c(Cl)c2)NC(=O)CN(C)C(=O)[C@@H]1Cc1ccc(C(F)(F)F)cc1 [PP1957] ([NMeL]I[NMeA][Aze][NPrPhe(4-CF3)][Sar][hPhe(3-Cl-4-CF3)]P[Ac4c][NMeGly(cPent)][NEtAsp]-NMe2; lactam N-11) | 0.36 nM | 8.6 nM | C (A compound having a KD ratio of 0.1 or more and less than 3 is denoted as C) | B (a compound having 3 or more and less than 10 is denoted as B) |
| CCCN1C(=O)CN(C)C(=O)CN(C)C(=O)[C@H]([C@@H](C)CC)NC(=O)[C@H](CC(C)C)N(C)C(=O)C[C@@H](C(=O)N2CCOCC2)N(C)C(=O)[C@H](C(CC)CC)N(C)C(=O)C2(CCC2)NC(=O)[C@@H]2CCCN2C(=O)[C@H](CCc2ccc(C(F)(F)F)c(Cl)c2)NC(=O)CN(C)C(=O)[C@@H]1Cc1ccc(C(F)(F)F)cc1 [PP1958] ([NMeL]I[Sar][Sar][NPrPhe(4-CF3)][Sar][hPhe(3-Cl-4-CF3)]P[Ac4c][NMeNva(3-Et)][NMeD]-Morpholide; lactam N-11) | 0.53 nM | 57.8 nM | B (a compound having 3 or more and less than 10 is denoted as B) | B (a compound having 3 or more and less than 10 is denoted as B) |
| CCC[C@H]1C(=O)N[C@@H]([C@@H](C)CC)C(=O)N(C)[C@@H](C)C(=O)N2CC[C@H]2C(=O)N(CCC)[C@@H](Cc2ccc(C(F)(F)F)cc2)C(=O)N(C)CC(=O)N[C@@H](CCc2ccc(C(F)(F)F)c(Cl)c2)C(=O)N2CCC[C@H]2C(=O)NC2(CCC2)C(=O)N(C)[C@@H](C(CC)CC)C(=O)N(C)[C@H](C(=O)N2CCOCC2)CC(=O)N1C [PP1959] ([NMeNva]I[NMeA][Aze][NPrPhe(4-CF3)][Sar][hPhe(3-Cl-4-CF3)]P[Ac4c][NMeNva(3-Et)][NMeD]-Morpholide; lactam N-11) | 0.55 nM | 14.7 nM | C (A compound having a KD ratio of 0.1 or more and less than 3 is denoted as C) | B (a compound having 3 or more and less than 10 is denoted as B) |
| CCCN1C(=O)CN(C)C(=O)CNC(=O)[C@H]([C@@H](C)CC)NC(=O)[C@H](CC(C)C)N(CC)C(=O)C[C@@H](C(=O)N2CCOCC2)N(C)C(=O)[C@H](C2CCCC2)N(C)C(=O)C2(CCCC2)NC(=O)[C@@H]2CCCN2C(=O)[C@H](CCc2ccc(C(F)(F)F)c(Cl)c2)NC(=O)CN(C)C(=O)[C@@H]1Cc1ccc(C(F)(F)F)cc1 [PP1967] ([NEtLeu]IG[Sar][NPrPhe(4-CF3)][Sar][hPhe(3-Cl-4-CF3)]P[Ac5c][NMeGly(cPent)][NMeD]-Morpholide; lactam N-11) | 0.36 nM | 10.9 nM | B (a compound having 3 or more and less than 10 is denoted as B) | B (a compound having 3 or more and less than 10 is denoted as B) |
| CCCN1C(=O)CN(CC)C(=O)CNC(=O)[C@H]([C@@H](C)CC)NC(=O)[C@H](CC(C)C)N(C)C(=O)C[C@@H](C(=O)N2CCOCC2)N(C)C(=O)[C@H](C2CCCC2)N(C)C(=O)C2(CCCC2)NC(=O)[C@@H]2CCCN2C(=O)[C@H](CCc2ccc(C(F)(F)F)c(Cl)c2)NC(=O)CN(C)C(=O)[C@@H]1Cc1ccc(C(F)(F)F)cc1 [PP1968] ([NMeL]IG[NEtG][NPrPhe(4-CF3)][Sar][hPhe(3-Cl-4-CF3)]P[Ac5c][NMeGly(cPent)][NMeD]-Morpholide; lactam N-11) | 0.76 nM | 13.5 nM | C (A compound having a KD ratio of 0.1 or more and less than 3 is denoted as C) | C (A compound having a KD ratio of 0.1 or more and less than 3 is denoted as C) |
| CCCN1C(=O)CN(C)C(=O)CNC(=O)[C@H]([C@@H](C)CC)NC(=O)[C@H](CC(C)C)N(C)C(=O)C[C@@H](C(=O)N2CCOCC2)N(C)C(=O)[C@H](C2CCCC2)N(C)C(=O)C2(CCCC2)NC(=O)[C@@H]2CCCN2C(=O)[C@H](CCc2ccc(C(F)(F)F)c(Cl)c2)NC(=O)CN(CC)C(=O)[C@@H]1Cc1ccc(C(F)(F)F)cc1 [PP1969] ([NMeL]IG[Sar][NPrPhe(4-CF3)][NEtG][hPhe(3-Cl-4-CF3)]P[Ac5c][NMeGly(cPent)][NMeD]-Morpholide; lactam N-11) | 2.1 nM | 74 nM | B (a compound having 3 or more and less than 10 is denoted as B) | C (A compound having a KD ratio of 0.1 or more and less than 3 is denoted as C) |

Stronger by Kd [1], values ahead:

| Kd [1] | IC50 [4] | Structure (SMILES) | NRAS/KRAS (KD ratio) [2] | HRAS/KRAS (KD ratio) [3] |
| --- | --- | --- | --- | --- |
| 0.28 nM | 2.2 nM | CCCN1C(=O)CN(C)C(=O)CN(C)C(=O)[C@H]([C@@H](C)CC)NC(=O)[C@H](CC(C)C)N(C)C(=O)C[C@@H](C(=O)N(C)C)N(CC)C(=O)[C@H](C2CCCC2)N(C)C(=O)C2(CCC2)NC(=O)[C@@H]2CCCN2C(=O)[C@H](CCc2ccc(C(F)(F)F)c(Cl)c2)NC(=O)CN(C)C(=O)[C@@H]1Cc1ccc(C(F)(F)F)cc1 [PP1956] ([NMeL]I[Sar][Sar][NPrPhe(4-CF3)][Sar][hPhe(3-Cl-4-CF3)]P[Ac4c][NMeGly(cPent)][NEtAsp]-NMe2; lactam N-11) | B (a compound having 3 or more and less than 10 is denoted as B) | B (a compound having 3 or more and less than 10 is denoted as B) |
| 0.17 nM | 6 nM | CCCN1C(=O)CN(C)C(=O)CN(C)C(=O)[C@H]([C@@H](C)CC)NC(=O)[C@H](CC(C)C)N(C)C(=O)C[C@@H](C(=O)N(C)C)N(C)C(=O)[C@H](C(CC)CC)N(C)C(=O)C2(CCC2)NC(=O)[C@@H]2CCCN2C(=O)[C@H](CCc2ccc(C(F)(F)F)c(Cl)c2)NC(=O)CN(C)C(=O)[C@@H]1Cc1ccc(C(F)(F)F)cc1 [PP1960] ([NMeL]I[Sar][Sar][NPrPhe(4-CF3)][Sar][hPhe(3-Cl-4-CF3)]P[Ac4c][NMeNva(3-Et)][NMeD]-NMe2; lactam N-11) | B (a compound having 3 or more and less than 10 is denoted as B) | C (A compound having a KD ratio of 0.1 or more and less than 3 is denoted as C) |
| 0.22 nM | 8 nM | CCCN1C(=O)[C@@H]2CCN2C(=O)[C@H](C)N(C)C(=O)[C@H]([C@@H](C)CC)NC(=O)[C@H](CC(C)C)N(C)C(=O)C[C@@H](C(=O)N(C)C)N(C)C(=O)[C@H](C(CC)CC)N(C)C(=O)C2(CCC2)NC(=O)[C@@H]2CCCN2C(=O)[C@H](CCc2ccc(C(F)(F)F)c(Cl)c2)NC(=O)CN(C)C(=O)[C@@H]1Cc1ccc(C(F)(F)F)cc1 [PP1961] ([NMeL]I[NMeA][Aze][NPrPhe(4-CF3)][Sar][hPhe(3-Cl-4-CF3)]P[Ac4c][NMeNva(3-Et)][NMeD]-NMe2; lactam N-11) | C (A compound having a KD ratio of 0.1 or more and less than 3 is denoted as C) | C (A compound having a KD ratio of 0.1 or more and less than 3 is denoted as C) |
| 0.18 nM | 9.1 nM | CCCN1C(=O)CN(C)C(=O)CN(C)C(=O)[C@H]([C@@H](C)OC)NC(=O)[C@H](CC(C)C)N(C)C(=O)C[C@@H](C(=O)N2CCOCC2)N(C)C(=O)[C@H](C2CCCC2)N(C)C(=O)C2(CC(C)(C)C2)NC(=O)[C@@H]2CCCN2C(=O)[C@H](CCc2ccc(C(F)(F)F)c(Cl)c2)NC(=O)CN(C)C(=O)[C@@H]1Cc1ccc(C(F)(F)F)cc1 [PP1963] ([NMeL]T(Me)[Sar][Sar][NPrPhe(4-CF3)][Sar][hPhe(3-Cl-4-CF3)]P[Ac4c(3,3-Me2)][NMeGly(cPent)][NMeD]-Morpholide; lactam N-11) | B (a compound having 3 or more and less than 10 is denoted as B) | C (A compound having a KD ratio of 0.1 or more and less than 3 is denoted as C) |
| 0.19 nM | 10.3 nM | CCCN1C(=O)CN(C)C(=O)CN(C)C(=O)[C@H]([C@@H](C)OCC)NC(=O)[C@H](CC(C)C)N(C)C(=O)C[C@@H](C(=O)N2CCOCC2)N(C)C(=O)[C@H](C2CCCC2)N(C)C(=O)C2(CC(C)(C)C2)NC(=O)[C@@H]2CCCN2C(=O)[C@H](CCc2ccc(C(F)(F)F)c(Cl)c2)NC(=O)CN(C)C(=O)[C@@H]1Cc1ccc(C(F)(F)F)cc1 [PP1964] ([NMeL]T(Et)[Sar][Sar][NPrPhe(4-CF3)][Sar][hPhe(3-Cl-4-CF3)]P[Ac4c(3,3-Me2)][NMeGly(cPent)][NMeD]-Morpholide; lactam N-11) | B (a compound having 3 or more and less than 10 is denoted as B) | B (a compound having 3 or more and less than 10 is denoted as B) |
| 0.3 nM | 17.4 nM | CCCO[C@H](C)[C@@H]1NC(=O)[C@H](CC(C)C)N(C)C(=O)C[C@@H](C(=O)N2CCOCC2)N(C)C(=O)[C@H](C2CCCC2)N(C)C(=O)C2(CC(C)(C)C2)NC(=O)[C@@H]2CCCN2C(=O)[C@H](CCc2ccc(C(F)(F)F)c(Cl)c2)NC(=O)CN(C)C(=O)[C@H](Cc2ccc(C(F)(F)F)cc2)N(CCC)C(=O)CN(C)C(=O)CN(C)C1=O [PP1965] ([NMeL]T(Propyl)[Sar][Sar][NPrPhe(4-CF3)][Sar][hPhe(3-Cl-4-CF3)]P[Ac4c(3,3-Me2)][NMeGly(cPent)][NMeD]-Morpholide; lactam N-11) | B (a compound having 3 or more and less than 10 is denoted as B) | B (a compound having 3 or more and less than 10 is denoted as B) |
